Experimental data published in the supplement of paper PMC10307832.

How the values were obtained:
Test in all cases: relative viability (nuclei count vs DMSO), 5 days (fraction); higher = more cells survive
ALW-II-49-7 + Lapatinib = compound: Cc1ccc(C(=O)Nc2cccc(C(F)(F)F)c2)cc1Nc1cncc(C(N)=O)c1 [ALW-II-49-7] + CS(=O)(=O)CCNCc1ccc(-c2ccc3ncnc(Nc4ccc(OCc5cccc(F)c5)c(Cl)c4)c3c2)o1 [Lapatinib] (partner 2 µM)
In short: (§1)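 Relative viability divides the nuclei count in treated wells by that in vehicle wells. Lung cancer cell lines were seeded in 1536-well plates, dosed by pin tool the next day, and fixed and stained after 5 days in one step with final 0.05% Triton X-100, 1% formaldehyde and 1 ug/ml Hoechst. Dosing was a single drug or a fixed anchor-drug dose plus five library-drug doses (not always all listed) in √10 steps, and values are medians of duplicate plates imaged at 4×.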

XMD13-2 + Phenformin = compound: C1CC1C(=O)NC2=NNC3=C2C=CC(=C3)C4=CC(=CC=C4)C(=O)NC5CC5 [XMD13-2] + N=C(N)NC(=N)NCCc1ccccc1 [Phenformin] (partner 250 µM)
In short: as §1

XMD13-2 + Alpelisib = compound: C1CC1C(=O)NC2=NNC3=C2C=CC(=C3)C4=CC(=CC=C4)C(=O)NC5CC5 [XMD13-2] + Cc1nc(NC(=O)N2CCC[C@H]2C(N)=O)sc1-c1ccnc(C(C)(C)C(F)(F)F)c1 [Alpelisib] (partner 2 µM)
In short: as §1

Dasatinib + Crizotinib = compound: Cc1nc(Nc2ncc(C(=O)Nc3c(C)cccc3Cl)s2)cc(N2CCN(CCO)CC2)n1 [Dasatinib] + C[C@@H](Oc1cc(-c2cnn(C3CCNCC3)c2)cnc1N)c1c(Cl)ccc(F)c1Cl [Crizotinib] (partner 1 µM)
In short: as §1

Row | Cell Line | relative viability (ALW-II-49-7 + Lapatinib; first compound 0.08 µM) | relative viability (ALW-II-49-7 + Lapatinib; first compound 0.253 µM) | relative viability (ALW-II-49-7 + Lapatinib; first compound 0.8 µM) | relative viability (ALW-II-49-7 + Lapatinib; first compound 2.53 µM) | relative viability (ALW-II-49-7 + Lapatinib; first compound 8 µM) | relative viability (XMD13-2 + Phenformin; first compound 0.05 µM) | relative viability (XMD13-2 + Phenformin; first compound 0.1581 µM) | relative viability (XMD13-2 + Phenformin; first compound 0.5 µM) | relative viability (XMD13-2 + Phenformin; first compound 1.581 µM) | relative viability (XMD13-2 + Phenformin; first compound 5 µM) | relative viability (XMD13-2 + Alpelisib; first compound 0.05 µM) | relative viability (XMD13-2 + Alpelisib; first compound 0.1581 µM) | relative viability (XMD13-2 + Alpelisib; first compound 0.5 µM) | relative viability (XMD13-2 + Alpelisib; first compound 1.581 µM) | relative viability (XMD13-2 + Alpelisib; first compound 5 µM) | relative viability (Dasatinib + Crizotinib; first compound 0.005 µM) | relative viability (Dasatinib + Crizotinib; first compound 0.01581 µM) | relative viability (Dasatinib + Crizotinib; first compound 0.05 µM) | relative viability (Dasatinib + Crizotinib; first compound 0.1581 µM) | relative viability (Dasatinib + Crizotinib; first compound 0.5 µM)
1 | HCC-366 | 1.21 | 1.32 | 1 | 1.09 | 1.13 | 0.705 | 0.577 | 0.633 | 0.569 | 0.611 | 0.61 | 0.31 | 0.334 | 0.446 | 0.443 | 0.374 | 0.18 | 0.158 | 0.0803 | 0.0691
2 | NCI-H1355 | 0.959 | 1.13 | 0.97 | 1.02 | 0.934 | 0.5 | 0.451 | 0.465 | 0.462 | 0.517 | 0.924 | 0.888 | 0.843 | 0.777 | 0.776 | 1.04 | 0.781 | 0.983 | 0.585 | 0.443
3 | SW 1573 | 1.14 | 1.21 | 1.1 | 1.2 | 1.15 | 0.443 | 0.385 | 0.384 | 0.26 | 0.24 | 1.03 | 0.711 | 1.01 | 0.676 | 0.666 | 0.826 | 0.689 | 0.624 | 0.429 | 0.356
4 | NCI-H661 | 0.47 | 0.474 | 0.383 | – | 0.483 | 0.261 | 0.292 | 0.274 | 0.267 | 0.271 | 0.751 | 0.854 | 0.506 | 0.4 | 0.448 | 1.08 | 1.19 | 0.972 | 0.8 | 0.547
5 | LU99A | 1.03 | 0.919 | 0.739 | 1.12 | 0.999 | 1.08 | 0.752 | 0.833 | 0.885 | 0.852 | 0.553 | 0.491 | 0.561 | 0.446 | 0.335 | 0.538 | 0.458 | 0.473 | 0.274 | 0.301
6 | LCLC-97TM1 | 1.03 | 1.06 | 1.06 | 0.842 | 1.01 | 0.441 | 0.441 | 0.425 | 0.492 | 0.459 | 0.214 | 0.262 | 0.225 | 0.206 | 0.146 | 0.336 | 0.485 | 0.307 | 0.238 | 0.146
7 | LC-2-ad | 0.812 | 0.96 | 0.932 | 0.947 | 0.753 | 0.586 | 0.584 | 0.669 | 0.546 | 0.528 | 0.983 | 0.887 | 0.939 | 0.938 | 0.79 | 0.416 | 0.329 | 0.326 | 0.257 | 0.2
8 | NCI-H2228 | 0.996 | 0.595 | 0.984 | 1.08 | 0.659 | 0.346 | 0.37 | 0.295 | 0.313 | 0.362 | 0.768 | 0.716 | 0.771 | 0.772 | 0.655 | 0.296 | 0.431 | 0.257 | 0.152 | 0.17
9 | NCI-H1944 | 0.82 | 0.915 | 0.843 | 0.889 | 0.623 | 0.219 | 0.224 | 0.225 | 0.23 | 0.203 | 1.02 | 0.85 | 0.889 | 0.939 | 0.778 | 1.06 | 0.847 | 0.779 | 0.327 | 0.233
10 | HOP-62 | 1.17 | 1.24 | 1.1 | 0.806 | 0.639 | 0.671 | 0.687 | 0.837 | 0.595 | 0.553 | 0.848 | 0.516 | 1.03 | 1 | 0.664 | 1.16 | 0.966 | 0.91 | 0.816 | 0.165
11 | NCI-H2347 | 1.11 | 0.958 | 1.11 | 0.85 | 0.8 | 0.615 | 0.507 | 0.404 | 0.26 | 0.51 | 1.04 | 1.07 | 1.08 | 0.92 | 1.05 | 0.316 | 0.397 | 0.355 | 0.301 | 0.369
12 | NCI-H2087 | 0.976 | 1.07 | 0.839 | 1.15 | 1.01 | 0.479 | 0.487 | 0.515 | 0.498 | 0.362 | 1.14 | 1.08 | 1.13 | 1.05 | 1.03 | 0.858 | 0.938 | 0.946 | 0.863 | 0.639
13 | EPLC-272H | 0.666 | 0.916 | 1.07 | 1.08 | 0.782 | 0.322 | 0.262 | 0.344 | 0.368 | 0.266 | 1.03 | 0.856 | 1.07 | 0.759 | 0.463 | 0.99 | 0.765 | 0.787 | 0.537 | 0.326
14 | LXF-289 | 0.864 | 0.818 | 0.922 | 1.01 | 0.967 | 0.538 | 0.536 | 0.561 | 0.551 | 0.527 | 1.09 | 0.982 | 1.08 | 1.05 | 1.04 | 0.849 | 0.912 | 0.857 | 0.197 | 0.136
15 | COR-L23 | 0.919 | 0.656 | 1.16 | 1.01 | 1.08 | 0.479 | 0.437 | 0.472 | 0.409 | 0.398 | 0.931 | 0.77 | 0.951 | 0.741 | 0.805 | 0.514 | 0.5 | 0.35 | 0.234 | 0.267
16 | RERF-LC-KJ | 0.867 | 0.948 | 0.867 | 0.941 | 0.859 | 0.5 | 0.435 | 0.446 | 0.407 | 0.396 | 0.776 | 0.902 | 0.842 | 0.641 | 0.91 | 0.839 | 0.977 | 0.832 | 0.75 | 0.764
